Measurements taken from PMC4734333, “Structural characterisation of human galectin-4 N-terminal carbohydrate recognition domain in complex with glycerol, lactose, 3′-sulfo-lactose, and 2′-fucosyllactose” (Scientific Reports, 2016).

What was measured:
Format in all cases: binding
[1] = molecular target: T1, galectin-4N (human galectin-4 N-terminal CRD) (Homo sapiens, UniProt P56470); assay: X-ray crystal structure ([…] Å) and competitive fluorescence anisotropy
T1 construct: gene LGALS4
T1 sequence (P56470 1-154): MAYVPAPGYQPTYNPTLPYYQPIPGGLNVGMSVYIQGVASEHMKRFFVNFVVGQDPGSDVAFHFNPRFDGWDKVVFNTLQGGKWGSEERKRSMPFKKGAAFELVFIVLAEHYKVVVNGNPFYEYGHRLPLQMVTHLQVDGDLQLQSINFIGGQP

[2] = molecular target: T1, galectin-4N (human galectin-4 N-terminal CRD); assay: as above; remark: listed apart in the source
[3] = molecular target: T2, galectin-4N (human galectin-4 N-terminal CRD) (Homo sapiens, UniProt P56470); assay: competitive fluorescence anisotropy
T2 construct: gene LGALS4; N-terminal CRD (galectin-4N)
T2 sequence (P56470 1-154 limits assumed): T1 sequence (P56470 1-154)

[4] = molecular target: T1, galectin-4N (human galectin-4 N-terminal CRD); assay: X-ray crystal structure ([…] Å) and competitive fluorescence anisotropy; remark: listed apart in the source

C[C@@H]1O[C@@H](O[C@H]2[C@H](O[C@H]3[C@H](O)[C@@H](O)C(O)O[C@@H]3CO)O[C@H](CO)[C@H](O)[C@@H]2O)[C@@H](O)[C@H](O)[C@@H]1O (stereo partly shown) [2′FL, 2′-fucosyllactose]
Kd [1]: 380 µM

O=S(=O)(O)O[C@H]1[C@@H](O)[C@@H](CO)O[C@@H](O[C@H]2[C@H](O)[C@@H](O)C(O)O[C@@H]2CO)[C@@H]1O (stereo partly shown) [3′SuL, lactose-3′-sulfate]
Kd [2]: 510 µM

CC(=O)N[C@H]1[C@@H](O[C@H]2[C@@H](O)[C@@H](CO)O[C@@H](O[C@H]3[C@H](O)[C@@H](O)C(O)O[C@@H]3CO)[C@@H]2O[C@@H]2O[C@@H](C)[C@@H](O)[C@@H](O)[C@@H]2O)O[C@H](CO)[C@H](O)[C@@H]1O (stereo partly shown) [A-tetrasaccharide]
Kd [3]: 164 µM

OC[C@H]1O[C@@H](O[C@H]2[C@H](O)[C@@H](O)C(O)O[C@@H]2CO)[C@H](O)[C@@H](O)[C@H]1O (stereo partly shown) [lactose]
Kd [4]: 1300 µM
